Source: patent US9512142B2, “Tricyclic triazolic compounds” (LABORATORIOS DEL DR. ESTEVE S.A., priority 2013, dated 2016)
Where two headings read alike, the source gives them in different places.

Legend:
human sigma 1 receptor = molecular target: T1, human sigma 1 receptor (Homo sapiens, UniProt Q99720); assay: Human sigma 1 receptor radioligand assay ([3H](+)-pentazocine, transfected HEK-293 membranes); assay type: binding; details: 5 nM [3H](+)-pentazocine, transfected HEK-293 membranes, 37° C., 120 minutes; read-out: Ki
T1 construct: expressed in transfected cells; host or cells: HEK-293
Procedure: Human Sigma 1 Receptor Radioligand Assay
The assay was carried out with 7 μg of membrane suspension, 5 nM of [^3H](+)-pentazocine in either absence or presence of either buffer or 10 μM Haloperidol for total and non-specific binding, respectively. Binding buffer contained Tris-HCl 50 mM at pH 8. Plates were incubated at 37° C. for 120 minutes. After the incubation period, the reaction mix was then transferred to MultiScreen HTS, FC plates (Millipore), filtered and plates were washed 3 times with ice-cold 10 mM Tris-HCL (pH7.4). Filters were dried and counted at approximately 40% efficiency in a MicroBeta scintillation counter (Perkin-Elmer) using EcoScint liquid scintillation cocktail.

Kinetic solubility = assay type: physicochemical; details: kinetic from dmso stock, buffered aqueous solution at pH=7.4, 10 μL of 10 mM DMSO solution in 1 mL, stirred 4 hours, supernatant by liquid chromatography, read-out: Kin. Solub.
Procedure: To a buffered aqueous solution at pH=7.4 (1 mL), a 10 mM DMSO solution of the test compound (10 μL) was added and the mixture stirred for 4 hours. After centrifugation, the compound concentration in the supernatant was determined by liquid chromatography by fitting in a calibration curve of the compound.

[1] = buffered aqueous solution, pH 7.4, aqueous buffer

T1 sequence (Q99720 whole entry): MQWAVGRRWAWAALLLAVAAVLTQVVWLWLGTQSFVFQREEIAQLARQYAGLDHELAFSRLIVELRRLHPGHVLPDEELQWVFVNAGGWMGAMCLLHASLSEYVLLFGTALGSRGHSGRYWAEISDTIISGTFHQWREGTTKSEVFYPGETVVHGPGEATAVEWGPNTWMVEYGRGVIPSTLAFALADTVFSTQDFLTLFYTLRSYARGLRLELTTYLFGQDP

| Ki (human sigma 1 receptor) [nM] | solubility at 4 h (Kinetic solubility; [1]) [µM] | Structure (SMILES) | solubility at 4 h (Kinetic solubility; aqueous buffer) [µM] |
| --- | --- | --- | --- |
| 22.7 | > 10 | Cl.Clc1ccc(-c2nnn3c2CO[C@H]2CN(C[C@@H]4CCOC4)C[C@@H]23)c(Cl)c1 [Example 56, (5aS,8aS)-3-(2,4-dichlorophenyl)-7-(((S)-tetrahydrofuran-3-yl)methyl)-4,5a,6,7,8,8a-hexahydropyrrolo[3,4-b][1,2,3]triazolo[1,5-d][1,4]oxazine hydrochloride] | – |
| 71.4 | > 10 | Cl.Clc1ccc(-c2nnn3c2CO[C@@H]2CN(CCC4CCOCC4)C[C@H]23)c(Cl)c1 [Example 54, (5aR,8aR)-3-(2,4-dichlorophenyl)-7-(2-(tetrahydro-2H-pyran-4-yl)ethyl)-4,5a,6,7,8,8a-hexahydropyrrolo[3,4-b][1,2,3]triazolo[1,5-d][1,4]oxazine hydrochloride] | – |
| 20.5 | > 10 | Cl.Fc1ccc(-c2nnn3c2CO[C@H]2CN(CC4CCOCC4)C[C@@H]23)c(Cl)c1 [Example 43, (5aS,8aS)-3-(2-chloro-4-fluorophenyl)-7-((tetrahydro-2H-pyran-4-yl)methyl)-4,5a,6,7,8,8a-hexahydropyrrolo[3,4-b][1,2,3]triazolo[1,5-d][1,4]oxazine hydrochloride] | – |
| 39.2 | > 10 | Cl.Fc1ccc(-c2nnn3c2CO[C@H]2CN(Cc4ccoc4)C[C@@H]23)c(F)c1 [Example 62, (5aS,8aS)-3-(2,4-difluorophenyl)-7-(furan-3-ylmethyl)-4,5a,6,7,8,8a-hexahydropyrrolo[3,4-b][1,2,3]triazolo[1,5-d][1,4]oxazine hydrochloride] | – |
| 102 | > 10 | Cc1occc1CN1C[C@@H]2[C@@H](C1)OCc1c(-c3ccc(F)cc3F)nnn12.Cl [Example 60, (5aR,8aR)-3-(2,4-difluorophenyl)-7-((2-methylfuran-3-yl)methyl)-4,5a,6,7,8,8a-hexahydropyrrolo[3,4-b][1,2,3]triazolo[1,5-d][1,4]oxazine hydrochloride] | – |
| 11.7 | > 10 | Cl.Fc1ccc(-c2nnn3c2CO[C@H]2CN(CCC4CCOCC4)C[C@@H]23)c(Cl)c1 [Example 48, (5aS,8aS)-3-(2-chloro-4-fluorophenyl)-7-(2-(tetrahydro-2H-pyran-4-yl)ethyl)-4,5a,6,7,8,8a-hexahydropyrrolo[3,4-b][1,2,3]triazolo[1,5-d][1,4]oxazine hydrochloride] | – |
| 166 | > 10 | Cl.Fc1ccc(-c2nnn3c2CO[C@@H]2CN(Cc4ccc(F)nc4)C[C@H]23)c(Cl)c1 [Example 39, (5aR,8aR)-3-(2-chloro-4-fluorophenyl)-7-((6-fluoropyridin-3-yl)methyl)-4,5a,6,7,8,8a-hexahydropyrrolo[3,4-b][1,2,3]triazolo[1,5-d][1,4]oxazine hydrochloride] | – |
| 33.3 | > 10 | Cl.Fc1ccc(-c2nnn3c2CO[C@@H]2CN(CC4CCOCC4)C[C@H]23)c(Cl)c1 [Example 42, (5aR,8aR)-3-(2-chloro-4-fluorophenyl)-7-((tetrahydro-2H-pyran-4-yl)methyl)-4,5a,6,7,8,8a-hexahydropyrrolo[3,4-b][1,2,3]triazolo[1,5-d][1,4]oxazine hydrochloride] | – |
| 37.7 | > 10 | Cl.Fc1ccc(-c2nnn3c2CO[C@@H]2CN(Cc4ccoc4)C[C@H]23)c(F)c1 [Example 63, (5aR,8aR)-3-(2,4-difluorophenyl)-7-(furan-3-ylmethyl)-4,5a,6,7,8,8a-hexahydropyrrolo[3,4-b][1,2,3]triazolo[1,5-d][1,4]oxazine hydrochloride] | – |

The remaining lines, values behind:

| Structure (SMILES) | Ki (human sigma 1 receptor) [nM] | solubility at 4 h (Kinetic solubility; [1]) [µM] | solubility at 4 h (Kinetic solubility; aqueous buffer) [µM] |
| --- | --- | --- | --- |
| Cc1cc(CN2C[C@@H]3OCc4c(-c5ccc(F)cc5F)nnn4[C@H]3C2)c(C)o1.Cl [Example 22, (5aS,8aS)-3-(2,4-difluorophenyl)-7-((2,5-dimethylfuran-3-yl)methyl)-4,5a,6,7,8,8a-hexahydropyrrolo[3,4-b][1,2,3]triazolo[1,5-d][1,4]oxazine hydrochloride] | 119 | > 10 | – |
| Cl.Fc1ccccc1-c1nnn2c1CO[C@@H]1CN(Cc3ccncc3)C[C@H]12 (racemic) [Example 2, (5aRS,8aRS)-3-(2-fluorophenyl)-7-(pyridin-4-ylmethyl)-4,5a,6,7,8,8a-hexahydropyrrolo[3,4-b][1,2,3]triazolo[1,5-d][1,4]oxazine hydrochloride] | 315 | – | > 10 |
| CCOc1ccc(CN2C[C@@H]3[C@@H](C2)OCc2c(-c4ccccc4F)nnn23)cn1.Cl [Example 19, (5aR,8aR)-7-((6-ethoxypyridin-3-yl)methyl)-3-(2-fluorophenyl)-4,5a,6,7,8,8a-hexahydropyrrolo[3,4-b][1,2,3]triazolo[1,5-d][1,4]oxazine hydrochloride] | 83.3 | > 10 | – |
| Cl.Cn1nccc1-c1nnn2c1CO[C@@H]1CN(Cc3ccc(F)cc3)C[C@H]12 [Example 66, (5aR,8aR)-7-(4-fluorobenzyl)-3-(1-methyl-1H-pyrazol-5-yl)-4,5a,6,7,8,8a-hexahydropyrrolo[3,4-b][1,2,3]triazolo[1,5-d][1,4]oxazine hydrochloride] | 138 | – | > 10 |
| Cl.Fc1ccccc1-c1nnn2c1CO[C@@H]1CN(C[C@@H]3CCOC3)C[C@H]12 [Example 16, (5aR,8aR)-3-(2-fluorophenyl)-7-(((S)-tetrahydrofuran-3-yl)methyl)-4,5a,6,7,8,8a-hexahydropyrrolo[3,4-b][1,2,3]triazolo[1,5-d][1,4]oxazine hydrochloride] | 97.6 | > 10 | – |
| Cl.Fc1ccc(CN2C[C@@H]3[C@@H](C2)OCc2c(-c4ccncc4)nnn23)cc1 (racemic) [Example 26, (5aRS,8aRS)-7-(4-fluorobenzyl)-3-(pyridin-4-yl)-4,5a,6,7,8,8a-hexahydropyrrolo[3,4-b][1,2,3]triazolo[1,5-d][1,4]oxazine hydrochloride] | 133 | – | > 10 |
| COc1ccc(-c2nnn3c2CO[C@H]2CN(C4CCOCC4)C[C@@H]23)cn1.Cl [Example 8, (5aS,8aS)-3-(6-methoxypyridin-3-yl)-7-(tetrahydro-2H-pyran-4-yl)-4,5a,6,7,8,8a-hexahydropyrrolo[3,4-b][1,2,3]triazolo[1,5-d][1,4]oxazine hydrochloride] | 227 | – | > 10 |
